Reference: patent publication US8497380B2, “Substituted acetophenones useful as PDE4 inhibitors” (Leo Pharma A/S, priority 2006, dated 2013)

Test system: Human peripheral blood mononuclear cells (PBMC)
Assay: TNFalfa-Release
Assay type: cell-based
Conditions: inhibition of TNF-a secretion, PBMC pre-incubated 30 minutes, stimulated 18 hours with lipopolysaccharide
Method in brief: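 Buffy-coat PBMC at 5×105 c/ml in RPMI1640 with 2% FCS were pre-incubated 30 min with compound, then stimulated 18 h with LPS 1 mg/ml. Supernatant TNF-a measured by enzyme immunoassay; pIC50 from inhibition curves relative to LPS-stimulated and unstimulated wells.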

Structure (SMILES)	IC50 [nM]
COc1ccc(C(=O)Cc2c(Cl)cncc2Cl)c(OCCCOCc2ccccc2)c1OC [Compound 183, 1-[2-(3-Benzyloxy-propoxy)-3,4-dimethoxy-phenyl]-2-(3,5-dichloro-pyridin-4-yl)-ethanone]	< 1000
COc1ccc(C(=O)Cc2c(Cl)cncc2Cl)c(OCCc2ccc(S(C)(=O)=O)cc2)c1OC [Compound 282, 2-(3,5-Dichloro-pyridin-4-yl)-1-{2-[2-(4-methanesulfonyl-phenyl)-ethoxy]-3,4-dimethoxy-phenyl}-ethanone]	< 1000
CCOc1c(OC)ccc(C(=O)Cc2c(Cl)cncc2Cl)c1OC [Compound 188, 2-(3,5-Dichloro-pyridin-4-yl)-1-(3-ethoxy-2,4-dimethoxy-phenyl)-ethanone]	< 1000
COc1ccccc1CNC(=O)COc1c(C(=O)Cc2c(Cl)cncc2Cl)ccc(OC)c1OC [Compound 218, 2-{6-[2-(3,5-Dichloro-pyridin-4-yl)-acetyl]-2,3-dimethoxy-phenoxy}-N-(2-methoxy-benzyl)-acetamide]	< 1000
COc1ccc(C(=O)COc2c(C(=O)Cc3c(Cl)cncc3Cl)ccc(OC)c2OC)cc1 [Compound 146, 2-(3,5-Dichloro-pyridin-4-yl)-1-{3,4-dimethoxy-2-[2-(4-methoxy-phenyl)-2-oxo-ethoxy]-phenyl}-ethanone]	< 1000
CCOC(=O)CCCOc1c(C(=O)Cc2c(Cl)cncc2Cl)ccc(OC)c1OC [Compound 142, 4-{6-[2-(3,5-Dichloro-pyridin-4-yl)-acetyl]-2,3-dimethoxy-phenoxy}-butyric acid ethyl ester]	< 1000
COc1ccc(C(=O)Cc2c(Cl)cncc2Cl)c(OCC(=O)NCc2cccc(F)c2F)c1OC [Compound 235, 2-{6-[2-(3,5-Dichloro-pyridin-4-yl)-acetyl]-2,3-dimethoxy-phenoxy}-N-(2,3-difluoro-benzyl)-acetamide]	< 1000
COc1ccc(C(=O)Cc2c(Cl)cncc2Cl)c(OCC(=O)N2CCOCC2)c1OC [Compound 204, 2-(3,5-Dichloro-pyridin-4-yl)-1-[3,4-dimethoxy-2-(2-morpholin-4-yl-2-oxo-ethoxy)-phenyl]-ethanone]	< 1000
COc1ccc(C(=O)Cc2c(Cl)cncc2Cl)c(OCC(=O)NCCCc2ccccc2)c1OC [Compound 243, 2-{6-[2-(3,5-Dichloro-pyridin-4-yl)-acetyl]-2,3-dimethoxy-phenoxy}-N-(3-phenyl-propyl)-acetamide]	< 1000
COc1ccc(C(=O)Cc2c(Cl)cncc2Cl)c(OCCCN2C(=O)c3ccccc3C2=O)c1OC [Compound 186, 2-(3-{6-[2-(3,5-Dichloro-pyridin-4-yl)-acetyl]-2,3-dimethoxy-phenoxy}-propyl)-isoindole-1,3-dione]	< 1000
C=CCOc1c(C(=O)Cc2c(Cl)cncc2Cl)ccc(OC)c1OC [Compound 114, 1-(2-Allyloxy-3,4-dimethoxy-phenyl)-2-(3,5-dichloro-pyridin-4-yl)-ethanone]	< 1000
COc1ccc(C(=O)Cc2c(Cl)cncc2Cl)c(OCc2ccccc2)c1OC [Compound 113, 1-(2-Benzyloxy-3,4-dimethoxy-phenyl)-2-(3,5-dichloro-pyridin-4-yl)-ethanone]	< 1000
C=CCOc1c(OC)ccc(C(=O)Cc2c(Cl)cncc2Cl)c1OCC=C [Compound 106, 1-(2,3-Bis-allyloxy-4-methoxy-phenyl)-2-(3,5-dichloro-pyridin-4-yl)-ethanone]	< 1000
COc1ccc(C(=O)Cc2c(Cl)cncc2Cl)c(OCC(=O)NCCNC(C)=O)c1OC [Compound 251, N-(2-Acetylamino-ethyl)-2-{6-[2-(3,5-dichloro-pyridin-4-yl)-acetyl]-2,3-dimethoxy-phenoxy}-acetamide]	< 1000
C=CCOc1c(OC)ccc(C(=O)Cc2c(Cl)cncc2Cl)c1OCCc1ccc(F)cc1 [Compound 269, 1-{3-Allyloxy-2-[2-(4-fluoro-phenyl)-ethoxy]-4-methoxy-phenyl}-2-(3,5-dichloro-pyridin-4-yl)-ethanone]	< 1000
COc1ccc(C(=O)Cc2c(Cl)cncc2Cl)c(OCC(=O)OC(C)C)c1OC [Compound 133, {6-[2-(3,5-Dichloro-pyridin-4-yl)-acetyl]-2,3-dimethoxy-phenoxy}-acetic acid isopropyl ester]	< 1000

Structure (SMILES)	IC50 [nM]
CCCNC(=O)COc1c(C(=O)Cc2c(Br)cncc2Br)ccc(OC)c1OC [Compound 293, 2-{6-[2-(3,5-Dibromo-pyridin-4-yl)-acetyl]-2,3-dimethoxy-phenoxy}-N-propyl-acetamide]	< 1000
CCOc1c(OC)ccc(C(=O)Cc2c(Cl)cncc2Cl)c1OCCc1ccccc1 [Compound 263, 2-(3,5-Dichloro-pyridin-4-yl)-1-(3-ethoxy-4-methoxy-2-phenethyloxy-phenyl)-ethanone]	< 1000
COc1ccc(C(=O)Cc2c(Cl)cncc2Cl)c(OCC(=O)NCc2cccnc2)c1OC [Compound 230, 2-{6-[2-(3,5-Dichloro-pyridin-4-yl)-acetyl]-2,3-dimethoxy-phenoxy}-N-pyridin-3-ylmethyl-acetamide]	< 1000
COc1ccc(C(=O)Cc2c(Cl)cncc2Cl)c(OCC(=O)NCCCN(C)C)c1OC [Compound 225, 2-{6-[2-(3,5-Dichloro-pyridin-4-yl)-acetyl]-2,3-dimethoxy-phenoxy}-N-(3-dimethylamino-propyl)-acetamide]	< 1000
COc1ccc(C(=O)Cc2c(Cl)cncc2Cl)c(OCc2ccc(C)c(F)c2F)c1OC [Compound 171, 2-(3,5-Dichloro-pyridin-4-yl)-1-(2-(2,3-difluoro-4-methyl-benzyloxy)-3,4-dimethoxy-phenyl)-ethanone]	< 1000
COc1ccc(CCOc2c(C(=O)Cc3c(Cl)cncc3Cl)ccc(OC)c2OC)cc1 [Compound 126, 2-(3,5-Dichloro-pyridin-4-yl)-1-{3,4-dimethoxy-2-[2-(4-methoxy-phenyl)-ethoxy]-phenyl}-ethanone]	< 1000
COc1ccc(C(=O)Cc2c(Cl)cncc2Cl)c(OCCCOc2ccccc2)c1OC [Compound 145, 2-(3,5-Dichloro-pyridin-4-yl)-1-[3,4-dimethoxy-2-(3-phenoxy-propoxy)-phenyl]-ethanone]	< 1000
COc1ccc(C(=O)Cc2c(Cl)cncc2Cl)c(OCc2cccc(Cl)c2)c1OC [Compound 144, 1-[2-(3-Chloro-benzyloxy)-3,4-dimethoxy-phenyl]-2-(3,5-dichloro-pyridin-4-yl)-ethanone]	< 1000
COc1ccc(C(=O)Cc2c(Cl)cncc2Cl)c(OCCc2cccc(Br)c2)c1OC [Compound 127, 1-{2-[2-(3-Bromo-phenyl)-ethoxy]-3,4-dimethoxy-phenyl}-2-(3,5-dichloro-pyridin-4-yl)-ethanone]	< 1000
COc1ccc(C(=O)Cc2c(Cl)cncc2Cl)c(OCC(=O)NCC2CCCCC2)c1OC [Compound 219, N-Cyclohexylmethyl-2-{6-[2-(3,5-dichloro-pyridin-4-yl)-acetyl]-2,3-dimethoxy-phenoxy}-acetamide]	< 1000
CCOc1c(OC)ccc(C(=O)Cc2c(Cl)cncc2Cl)c1OCC [Compound 104, 2-(3,5-Dichloro-pyridin-4-yl)-1-(2,3-diethoxy-4-methoxy-phenyl)-ethanone]	< 1000
COc1ccc(C(=O)Cc2c(Cl)cncc2Cl)c(OCC(=O)NCc2ccccc2C)c1OC [Compound 237, 2-{6-[2-(3,5-Dichloro-pyridin-4-yl)-acetyl]-2,3-dimethoxy-phenoxy}-N-(2-methyl-benzyl)-acetamide]	< 1000
COc1ccc(C(=O)Cc2c(Cl)cncc2Cl)c(OCCOc2ccc(Cl)cc2)c1OC [Compound 153, 1-{2-[2-(4-Chloro-phenoxy)-ethoxy]-3,4-dimethoxy-phenyl}-2-(3,5-dichloro-pyridin-4-yl)-ethanone]	< 1000
COc1cccc(CCOc2c(C(=O)Cc3c(Cl)cncc3Cl)ccc(OC)c2OC)c1 [Compound 125, 2-(3,5-Dichloro-pyridin-4-yl)-1-{3,4-dimethoxy-2-[2-(3-methoxy-phenyl)-ethoxy]-phenyl}-ethanone]	< 1000
COc1ccc(C(=O)Cc2c(Cl)cncc2Cl)c(OCc2cc(C)on2)c1OC [Compound 108, 2-(3,5-Dichloro-pyridin-4-yl)-1-[3,4-dimethoxy-2-(5-methyl-isoxazol-3-ylmethoxy)-phenyl]-ethanone]	< 1000
COc1ccc(C(=O)Cc2c(Cl)cncc2Cl)c(OCC(=O)NC2CCCC2)c1OC [Compound 211, N-Cyclopentyl-2-{6-[2-(3,5-dichloro-pyridin-4-yl)-acetyl]-2,3-dimethoxy-phenoxy}-acetamide]	< 1000
